US10350199B2, “3-(1h-pyrrolo[2,3-b]pyridin-2-yl)-1h-indazoles and therapeutic uses thereof” (Samumed, LLC, priority 2015, dated 2019)
pEC50: −log10 of the molar value.

What was measured:
Assay type in all cases: cell-based
[1] = tested on: Wnt activity (Sp5-Luc reporter, SW480 colon carcinoma cells); assay: Wnt activity screening assay, Sp5-Luc reporter gene in SW480 cells; conditions: Homo sapiens; for inhibition at 10 µM: SW480, read-out: percent inhibition at 10 μM; for pEC50: Sp5-Luc reporter, SW480 cells, overnight incubation
From the text: The screening assay for Wnt activity is described as follows. Reporter cell lines can be generated by stably transducing cancer cell lines (e.g., colon cancer) or primary cells (e.g., IEC-6 intestinal cells) with a lentiviral construct that includes a Wnt-responsive promoter driving expression of the firefly luciferase gene.
SW480 colon carcinoma cells were transduced with a lentiviral vector expressing luciferase with a human Sp5 promoter consisting of a sequence of eight TCF/LEF binding sites. SW480 cells stably expressing the Sp5-Luc reporter gene and a hygromycin resistance gene were selected by treatment with 150 μg/mL of hygromycin for 7 days. These stably transduced SW480 cells were expanded in cell culture and used for all further screening activities. […] For Sp5-Luc reporter gene assays, the cells were plated at 4,000 cells/well in 384-well plates with medium containing 1% fetal bovine serum and incubated overnight at 37° C. and 5% CO2. Following incubation, 20 μl of BrightGlo luminescence reagent (Promega) was added to each well of the 384-well assay plates. The plates were placed on an orbital shaker for 2 min and then luminescence was quantified using the Envision (Perkin Elmer) plate reader. Readings were normalized to DMSO only treated cells, and normalized activities were utilized for EC50 calculations using the dose-response log (inhibitor) vs. response -variable slope (four parameters) nonlinear regression feature available in GraphPad Prism 5.0 (or Dotmatics).

[2] = tested on: primary human fibroblasts derived from IPF patients (LL29 cells) treated with TGF-β1; assay: Inhibition of the fibrotic process: αSMA staining in TGF-β1 treated LL29 fibroblasts; conditions: Fibroblast; for pEC50: 96 h, LL29 cells, TGF-β1 20 ng/mL, 4 days, % αSMA positive cells; for inhibition at 10 µM: read-out: percent inhibition at 10 μM
Description: Representative compounds were screened using primary human fibroblasts (derived from IPF patients) treated with TGF-β1 to determine their ability to inhibit the fibrotic process.
LL29 cells are plated at 1,500 cells/well in 80 μL/well F12 medium supplemented with 1% Fetal Bovine Serum. […] Wells treated with TGF-β1 and containing DMSO were used as controls. […] Following incubation for 4 days, SYTOX green nucleic acid stain (Life Technologies [Thermo Fisher Scientific]) was added to the wells at a final concentration of 1 μM and incubated at room temperature for 30 min.

[3] = tested on: IL-6 (THP-1 human monocyte cell line); assay: IL-6 inhibition in LPS-stimulated THP-1 cells (HTRF); conditions: for pEC50: IL-6 inhibition, LPS-stimulated THP-1 cells, HTRF; for inhibition at 10 µM: THP-1, read-out: percentage in parentheses beside EC50 >10 (IL-6 inhibition)
Description: THP-1 cells were cultured in basal media with 1% FBS for 24 hours before the start of the assay. […] THP-1 cells were plated at 5000 cells/well in the 384-well plates and incubated at 37° C. for 2 h. 500 ng/mL of LPS was added after 2 hours and cells were incubated for another 22 hours at 37° C. Plates were spun in a centrifuge for 1 minute at […] and a mixture of anti-IL6 XL665, and anti-IL6 Cryptate diluted in reconstitution buffer (Cisbio Inc.) was added to each well. Following incubation for 3 hrs at room temperature, Homogeneous Time-Resolved Fluorescence (HTRF) was measured using the Envision (Perkin Elmer) at 665 nm and […]. The ratio of fluorescence at 665 nm to 620 nm was used as a readout for IL6 quantification. All samples were processed in duplicate. Readings were normalized to DMSO treated cells and normalized activities were utilized for EC50 calculations using the dose-response log (inhibitor) vs. response -variable slope (four parameters) nonlinear regression feature available in GraphPad Prism 5.0 (or Dotmatics).

SW480 colon cancer cells = assay: Cell viability assay (CellTiter-Blue), SW480 cells, four days; conditions: Homo sapiens; for pEC50: 96 h, SW480 cell viability, four days, CellTiter-Blue; for inhibition at 10 µM: SW480, read-out: percent inhibition at 10 μM
Description: Representative compounds were screened using the following assay procedure to assess the effect on cell viability as described below.
Approximately 2×10^3 SW480 colon cancer cells were seeded into each well and allowed to incubate in the presence or absence of compound for four days at 37° C./5% CO2. Eight replicates of DMSO-treated cells served as controls and cells treated with compound were performed in duplicate.
After incubation, 20 μL of CellTiter-Blue (Promega) was added to each well allowed to incubate for approximately 3 hours. This reagent was a buffered solution which contains resazurin, metabolically active cells were able to reduce rezarurin (blue) into resorufin (pink) which was highly fluorescent. This measured fluorescence was used as a readout for cell viability.

Structure (SMILES)	inhibition at 10 µM [1] [%]	pEC50 [1]	pEC50 [2]	inhibition at 10 µM [2] [%]	pEC50 [3]	inhibition at 10 µM [3] [%]	pEC50 (SW480 colon cancer cells)	inhibition at 10 µM (SW480 colon cancer cells) [%]
CC(C)C(=O)Nc1cncc(-c2ccc3[nH]nc(-c4cc5c(-c6ccccc6F)ccnc5[nH]4)c3c2)c1 [Compound 65, N-(5-(3-(4-(2-Fluorophenyl)-1H-pyrrolo[2,3-b]pyridin-2-yl)-1H-indazol-5-yl)pyridin-3-yl)isobutyramide]	30.5	< 5.00	< 5.00	11.7	< 5.00	34.9	< 5.00	10.8
O=C(Cc1ccccc1)Nc1cncc(-c2ccc3[nH]nc(-c4cc5c(N6CCCCC6)ccnc5[nH]4)c3c2)c1 [Compound 178, 2-Phenyl-N-(5-(3-(4-(piperidin-1-yl)-1H-pyrrolo[2,3-b]pyridin-2-yl)-1H-indazol-5-yl)pyridin-3-yl)acetamide]	13.8	< 5.00	< 5.00	0	< 5.00	36.5	< 5.00	18.7
CC(C)CC(=O)Nc1cncc(-c2ccc3[nH]nc(-c4cc5c(-c6ccc(F)cc6)ccnc5[nH]4)c3c2)c1 [Compound 30, N-(5-(3-(4-(4-Fluorophenyl)-1H-pyrrolo[2,3-b]pyridin-2-yl)-1H-indazol-5-yl)pyridin-3-yl)-3-methylbutanamide]	13.6	< 5.00	< 5.00	20.2	< 5.00	25.3	< 5.00	14.9
CC(C)CC(=O)Nc1cncc(-c2ccc3[nH]nc(-c4cc5c(-c6cccs6)ccnc5[nH]4)c3c2)c1 [Compound 338, 3-Methyl-N-(5-(3-(4-(thiophen-2-yl)-1H-pyrrolo[2,3-b]pyridin-2-yl)-1H-indazol-5-yl)pyridin-3-yl)butanamide]		6.48	6.24		7.33		6.13	
c1ccc(-c2ccc3[nH]nc(-c4cc5c(-c6ccoc6)ccnc5[nH]4)c3c2)nc1 [Compound 336, 3-(4-(Furan-3-yl)-1H-pyrrolo[2,3-b]pyridin-2-yl)-5-(pyridin-2-yl)-1H-indazole]	11	< 5.00	< 5.00	0	< 5.00	45.1	< 5.00	0
CC(C)(C)CC(=O)Nc1cncc(-c2ccc3[nH]nc(-c4cc5c(-c6ccccc6F)ccnc5[nH]4)c3c2)c1 [Compound 72, N-(5-(3-(4-(2-Fluorophenyl)-1H-pyrrolo[2,3-b]pyridin-2-yl)-1H-indazol-5-yl)pyridin-3-yl)-3,3-dimethylbutanamide]	9.3	< 5.00	< 5.00	5.4	< 5.00	10.5	< 5.00	12.6
CN(C)Cc1cncc(-c2ccc3[nH]nc(-c4cc5c(N6CCCCC6)ccnc5[nH]4)c3c2)c1 [Compound 181, N,N-Dimethyl-1-(5-(3-(4-(piperidin-1-yl)-1H-pyrrolo[2,3-b]pyridin-2-yl)-1H-indazol-5-yl)pyridin-3-yl)methanamine]	26.2	< 5.00	< 5.00	9.1	< 5.00	29	< 5.00	17.6
O=C(Nc1cncc(-c2ccc3[nH]nc(-c4cc5c(-c6ccc(F)cc6)ccnc5[nH]4)c3c2)c1)c1ccccc1 [Compound 39, N-(5-(3-(4-(4-Fluorophenyl)-1H-pyrrolo[2,3-b]pyridin-2-yl)-1H-indazol-5-yl)pyridin-3-yl)benzamide]	0	< 5.00	5.31		< 5.00	28.4	< 5.00	24.2
CN(C)Cc1cncc(-c2ccc3[nH]nc(-c4cc5c(-c6cccs6)ccnc5[nH]4)c3c2)c1 [Compound 349, N,N-Dimethyl-1-(5-(3-(4-(thiophen-2-yl)-1H-pyrrolo[2,3-b]pyridin-2-yl)-1H-indazol-5-yl)pyridin-3-yl)methanamine]		5.41	6.06		7.04		5.33	
Fc1cccc(-c2ccnc3[nH]c(-c4n[nH]c5ccc(-c6ccccn6)cc45)cc23)c1 [Compound 28, 3-(4-(3-Fluorophenyl)-1H-pyrrolo[2,3-b]pyridin-2-yl)-5-(pyridin-2-yl)-1H-indazole]	8.5	< 5.00	< 5.00	12	< 5.00	21	< 5.00	12.9
CCC(=O)Nc1cncc(-c2ccc3[nH]nc(-c4cc5c(-c6ccccn6)ccnc5[nH]4)c3c2)c1 [Compound 141, N-(5-(3-(4-(Pyridin-2-yl)-1H-pyrrolo[2,3-b]pyridin-2-yl)-1H-indazol-5-yl)pyridin-3-yl)propionamide]		6.62	5.78		< 5.00	30.3	5.22	
CC(C)Nc1cncc(-c2ccc3[nH]nc(-c4cc5c(-c6ccccc6F)ccnc5[nH]4)c3c2)c1 [Compound 68, 5-(3-(4-(2-Fluorophenyl)-1H-pyrrolo[2,3-b]pyridin-2-yl)-1H-indazol-5-yl)-N-isopropylpyridin-3-amine]	18.7	< 5.00	< 5.00	0	6.42		< 5.00	10.9
O=C(Cc1ccccc1)Nc1cncc(-c2ccc3[nH]nc(-c4cc5c(-c6ccncc6)ccnc5[nH]4)c3c2)c1 [Compound 122, 2-Phenyl-N-(5-(3-(4-(pyridin-4-yl)-1H-pyrrolo[2,3-b]pyridin-2-yl)-1H-indazol-5-yl)pyridin-3-yl)acetamide]	28.3	< 5.00	5.21		< 5.00	47.3	5.71	
c1cnc2[nH]c(-c3n[nH]c4ccc(-c5ccncc5)cc34)cc2c1 [Compound 270, 5-(Pyridin-4-yl)-3-(1H-pyrrolo[2,3-b]pyridin-2-yl)-1H-indazole]	45.7	< 5.00	5.19		< 5.00	48.3	< 5.00	15.2
c1cc(N2CCCCC2)c2cc(-c3n[nH]c4ccc(-c5cncc(CNCC6CCCC6)c5)cc34)[nH]c2n1 [Compound 193, 1-Cyclopentyl-N-((5-(3-(4-(piperidin-1-yl)-1H-pyrrolo[2,3-b]pyridin-2-yl)-1H-indazol-5-yl)pyridin-3-yl)methyl)methanamine]	8	< 5.00	< 5.00	24.9	< 5.00	18	< 5.00	12.5
